The source of these data is PubChem BioAssay (NCI).

Test systems include NCI/ADR-RES ovarian; KM12 colon; MDA-MB-435; M14 melanoma; MDA-MB-231 breast; SNB-19 CNS; HS 578T breast; OVCAR-4 ovarian.
Holding throughout (assay): growth of human tumour cells (NCI), 48 h

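How tested: cells in 96-well plates exposed to compound for 48 hours at five concentrations. Abbreviation: GI50, concentration required for 50% inhibition of growth. TGI: concentration producing complete growth inhibition.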

As to `NC(=O)c1c(NC(=O)c2cccs2)sc2c1CCC(=O)C2`, the GI50 was 2.5 µM with NCI/ADR-RES ovarian; 2.18 µM with KM12 colon; 2.95 µM in the assay with MDA-MB-435; 3.73 µM in the assay with M14 melanoma; 1.99 µM in the assay on MDA-MB-231 breast; 3.49 µM in the assay with SNB-19 CNS. In addition, the GI50 was 3.27 µM in the assay with HS 578T breast and 0.761 µM in the assay with OVCAR-4 ovarian. Besides, the TGI with NCI/ADR-RES ovarian is 26.4 µM; in the assay on KM12 colon, 9.52 µM; in the assay on MDA-MB-435, 10.6 µM; in the assay with M14 melanoma it was over 100 µM; with MDA-MB-231 breast, 6.28 µM; with SNB-19 CNS, over 100 µM. Further, the values for the TGI in the assay on HS 578T breast and in the assay with OVCAR-4 ovarian were over 100 µM and 2.75 µM, respectively.
With `C=CCn1c2ccccc2c2c3c(c4c5ccccc5n(CC=C)c4c21)C(=O)N(O)C3=O`, the GI50 was 3.43 µM in the assay with NCI/ADR-RES ovarian; 3.2 µM in the assay with KM12 colon; 4.45 µM in the assay with MDA-MB-435; 2.31 µM with M14 melanoma; 4.12 µM in the assay with MDA-MB-231 breast; 4.18 µM in the assay with SNB-19 CNS. The GI50 in the assay with HS 578T breast is 19.6 µM; with OVCAR-4 ovarian it was 5.38 µM. Besides, the TGI is 21.9 µM in the assay on NCI/ADR-RES ovarian; 18.4 µM in the assay with KM12 colon; 29.6 µM with MDA-MB-435; 26.2 µM in the assay on M14 melanoma; 21.4 µM in the assay on MDA-MB-231 breast; over 100 µM in the assay with SNB-19 CNS. In addition, the results for the TGI in the assay on HS 578T breast and in the assay with OVCAR-4 ovarian were over 100 µM and 44.8 µM, respectively.
As for `Cn1ncc(C#N)c1-c1ccc2c(c1)CN([C@H](CN)Cc1cccc(F)c1)C2=O`, the GI50 in the assay with NCI/ADR-RES ovarian was over 100 µM; with KM12 colon, 0.711 µM; with MDA-MB-435 it was 7.56 µM; with M14 melanoma, 14.2 µM; in the assay with MDA-MB-231 breast, 20.9 µM; with SNB-19 CNS it was 1.15 µM. For the same compound, the GI50 is 0.322 µM with HS 578T breast and 23.1 µM in the assay with OVCAR-4 ovarian. The TGI was over 100 µM in the assay on NCI/ADR-RES ovarian; over 100 µM in the assay on KM12 colon; over 67.7 µM with MDA-MB-435; 57.1 µM in the assay with M14 melanoma; over 100 µM in the assay on MDA-MB-231 breast; over 55.3 µM in the assay with SNB-19 CNS. The TGI is 11.4 µM with HS 578T breast and over 100 µM in the assay on OVCAR-4 ovarian.
On to `Nc1[nH]nc2nc(-c3cc(Cl)ccc3Cl)cc(-c3ccc(F)cc3)c12`, for which the GI50 is 23 µM in the assay on NCI/ADR-RES ovarian; 22.6 µM with KM12 colon; 30.3 µM in the assay with MDA-MB-435; 27.9 µM in the assay with M14 melanoma; 19.9 µM with MDA-MB-231 breast; 35.7 µM with SNB-19 CNS. Besides, the GI50 with HS 578T breast is 24.1 µM; with OVCAR-4 ovarian, 39.2 µM. For the same compound, the TGI in the assay with NCI/ADR-RES ovarian was 59.9 µM; in the assay on KM12 colon, 58 µM; in the assay with MDA-MB-435 it was 56 µM; with M14 melanoma it was 49.8 µM; in the assay on MDA-MB-231 breast, 61.1 µM; with SNB-19 CNS, over 100 µM. The TGI in the assay on HS 578T breast is 53.7 µM; with OVCAR-4 ovarian it was over 100 µM.
For the compound `COc1cc(OCc2ccccc2)c2c(CCC(=O)O)cc(=O)oc2c1` (tested in a mixture with another compound), the TGI in the assay with NCI/ADR-RES ovarian, with KM12 colon, in the assay with MDA-MB-435, with M14 melanoma, in the assay on MDA-MB-231 breast and in the assay on SNB-19 CNS was over 100 µM each time. Also, the TGI with HS 578T breast and in the assay on OVCAR-4 ovarian was over 100 µM throughout.
As for `Cc1nc2sc(C(=O)Nc3cccc(Br)c3C)c(N)c2cc1C(O)c1ccccc1` (stereo not drawn), the GI50 is 0.032 µM in the assay on NCI/ADR-RES ovarian; 0.0373 µM in the assay with KM12 colon; 0.0198 µM in the assay with MDA-MB-435; 0.0306 µM in the assay on M14 melanoma; 0.0473 µM with MDA-MB-231 breast; 0.0598 µM in the assay on SNB-19 CNS. In addition, the GI50 is 0.0345 µM with HS 578T breast and 0.147 µM in the assay with OVCAR-4 ovarian. Further, the TGI in the assay on NCI/ADR-RES ovarian was 12.8 µM; in the assay on KM12 colon, 4.76 µM; in the assay on MDA-MB-435, 0.0552 µM; in the assay on M14 melanoma it was 14.7 µM; with MDA-MB-231 breast it was 5.66 µM; in the assay on SNB-19 CNS, over 100 µM. The figures for the TGI in the assay with HS 578T breast and in the assay with OVCAR-4 ovarian were 6.04 µM and over 70.5 µM, respectively.
With `COC(=O)[C@]12CC[C@@H](C)[C@H](C)[C@@H]1C1=CC[C@@H]3[C@@]4(C)C(C=O)=C[C@@](C)(CO)[C@@H]4[C@H](O)C[C@@]3(C)[C@]1(C)CC2`, the GI50 in the assay with NCI/ADR-RES ovarian was 4.12 µM; in the assay on KM12 colon it was 4.02 µM; in the assay with MDA-MB-435, 3.29 µM; with M14 melanoma, 4.13 µM; with MDA-MB-231 breast, 7.86 µM; with SNB-19 CNS, 7.69 µM. Besides, the GI50 in the assay on HS 578T breast was 4.82 µM; in the assay with OVCAR-4 ovarian, 4.17 µM. Besides, the TGI in the assay on NCI/ADR-RES ovarian amounted to 34.6 µM; with KM12 colon, 15.3 µM; in the assay with MDA-MB-435, 13.4 µM; in the assay with M14 melanoma, 17.8 µM; in the assay with MDA-MB-231 breast, 22.3 µM; with SNB-19 CNS, 21.7 µM. Moreover, the results for the TGI with HS 578T breast and in the assay with OVCAR-4 ovarian were 26.4 µM and 16.8 µM, respectively.
With `Cc1ccc(N(C=O)c2c([N+](=O)[O-])cc([N+](=O)[O-])c3c2=[N+]([O-])CN=3)cc1`, the TGI with NCI/ADR-RES ovarian was 92.2 µM; with KM12 colon it was over 100 µM; in the assay with MDA-MB-435 it was over 100 µM; in the assay on M14 melanoma, 44.8 µM; in the assay on MDA-MB-231 breast it was 54.5 µM; in the assay with SNB-19 CNS it was over 100 µM. The TGI in the assay on HS 578T breast and in the assay on OVCAR-4 ovarian was over 100 µM throughout.
Turning to `Nc1ccccc1C#C/C=C\C#Cc1ccccc1C#CCO`, the GI50 in the assay with NCI/ADR-RES ovarian was 6.17 µM; in the assay on KM12 colon, 1.81 µM; with MDA-MB-435, 1.51 µM; with M14 melanoma it was 7.68 µM; in the assay with MDA-MB-231 breast it was 7.73 µM; in the assay on SNB-19 CNS, 23.9 µM. In addition, the figures for the GI50 in the assay with HS 578T breast and in the assay with OVCAR-4 ovarian were 8.89 µM and 14 µM, respectively. The TGI in the assay with NCI/ADR-RES ovarian was 21.4 µM; with KM12 colon it was 7.8 µM; in the assay with MDA-MB-435, 4.21 µM; in the assay on M14 melanoma it was 26 µM; in the assay with MDA-MB-231 breast it was 28.7 µM; with SNB-19 CNS, over 50 µM. In addition, the TGI in the assay with HS 578T breast was found to be 27.8 µM; with OVCAR-4 ovarian it was 41.4 µM.
